The values below come from patent US10125101B2, “Indanylaminopyridylcyclopropanecarboxylic acids, pharmaceutical compositions and uses thereof” (Boehringer Ingelheim International GmbH, priority 2016, dated 2018).

Series [1] addresses cytochrome P450 2C8-isoenzyme (Homo sapiens (Human), UniProt P10632). Put plainly: Inhibition of CYP-2C8 (amodiaquine deethylation, human liver microsomes). The following applies: amodiaquine 1 μM, 37° C. The format is in vitro ADME. On the procedure:
(§1) All assays are carried out on a robotic system in 96 well plates. The final incubation volume contains TRIS buffer (0.1 M), MgCl2 (5 mM), human liver microsomes (0.05 mg/mL), amodiaquine (1 μM) and the test compound at five different concentrations or no compound (high control) in duplicate (e.g. highest concentration 10-50 μM with subsequent serial 1:4 dilutions). Following a short preincubation period, reactions are started with the cofactor (NADPH, 1 mM) and stopped by cooling the incubation down to 8° C. and subsequently by addition of one volume of acetonitrile. An internal standard solution—the stable isotope d5-desethylamodiaquine—is added after quenching of incubations. Peak area analyte (=metabolite formed) and internal standard is determined by LC-MS/MS. The resulting peak area ratio analyte to internal standard in these incubations is compared to a control activity containing no test compound. Within each of the assay runs, the IC50 of a positive control inhibitor (Montelukast) is determined.
(Microsomes from liver hold many membrane-bound enzymes, among them those of drug oxidation.)

Another series concerns the target human GPR40 receptor (Homo sapiens (Human), UniProt O14842). In words: IP1 accumulation measurements using the IPOne assay system. Format: cell-based. On the procedure: IP1 accumulation measurements using the IPOne assay system—1321N1 cells stably expressing human GPR40 receptor (Euroscreen, Belgium) are seeded 24 h before the assay in white 384-well plates in culture medium containing 10% FCS, 1% Na-Pyruvate and 400 μg/mL G418. IP1 is assayed according to the manufacturer's description (Cisbio Bioassays, France). In brief, the assay is started by substitution of the culture medium by stimulation buffer (Hepes 10 mM, CaCl2 1 mM, MgCl2 0.5 mM, KCl 4.2 mM, NaCl 146 mM, glucose 5.5 mM and LiCl 50 mM, pH 7.4). Cells are stimulated for 1 h at 37° C., 5% CO2 by addition of the compounds that are diluted in stimulation buffer containing LiCl. Assays are stopped by adding HTRF-conjugates (IP1-d2 and Anti-IP1 cryptate Tb) and lysis buffer, provided by the manufacturer. After an incubation time of 1 h at room temperature plates are measured using an EnVision™, Perkin Elmer. The obtained fluorescence ratios at 665/615 […] are then used to calculate the pEC50 values using Assay Explorer 3.3 Software (Accelrys, Inc.) by interpolation using an IP1 reference curve and subsequent sigmoidal curve fitting allowing for a variable hill slope.

Series [2] is described as follows: Chemical stability (degradation kinetics) in acidic aqueous media. The note with it: pH value ca. 1.2 (acetonitrile/0.1 M aqueous HCl 2:3), 37° C. The format is physicochemical. On the procedure: Degradation kinetics is used to simulate chemical stability of compounds in the acidic part of the gastro intestinal tract. […] Their application as medical drugs to treat human diseases is therefore less restricted and troublesome.
The chemical stability of the compounds of the invention at pH value of ca. 1.2 is determined as follows:
Compound is dissolved in an HPLC vial either in a mixture of acetonitrile/0.1 M aqueous HCl (2:3; pH ca. 1.2) or in a mixture of acetonitrile/McIlvaine buffer pH 7.4 (2:3) to get a concentration of approximately 0.25 mg/ml. The vial was then transferred into an HPLC autosampler system and maintained at a temperature of 37° C. A first sample is taken and injected immediately into a standard HPLC system with a UV DAD detector. Further samples are injected after 2, 4, 6, 8 and 10 hours. Amount of degraded compound is measured by determining the recovery rate of compound [%] for each injection using an HPLC standard gradient method. Therefore the peak area of the main peak for the first injection (AUt0) is determined and set as 100%. Peak area of the main peak is determined also for the further injections (AUtn, n=2, 4, 6, 8, 10) and expressed as fraction of (AUt0)/(AUtn, n=2, 4, 6, 8, 10) [%].

Series [3] concerns the target cytochrome P450 2C9-isoenzyme (Homo sapiens (Human), UniProt P11712). In words: Inhibition of CYP-2C9 (diclofenac hydroxylation, human liver microsomes). The note with it: diclofenac 10 μM, 37° C. Format: in vitro ADME. On the procedure: as §1, with “(0.1” for “(0.05”, “diclofenac (10” for “amodiaquine (1”, “(e.g.,” for “(e.g.”, “^13C6-hydroxydiclofenac—is” for “d5-desethylamodiaquine—is”, “(sulfaphenazole)” for “(Montelukast)”

Another series is described as follows: Aqueous solubility. Format: physicochemical. The following applies: buffer pH 2.2, 24 h shaking, 2.5% DMSO; for solubility at 24 h: aqueous buffer, kinetic from dmso stock. On the procedure: Starting from a 10 mM DMSO stock solution aliquots are diluted with acetonitrile/water (1/1) or buffer, respectively. After 24 h of shaking, the solutions are filtrated and analyzed by LC-UV. The amount dissolved in buffer is compared to the amount in the acetonitrile solution.

≈ marks a conversion by molar mass, not a printed value. Like-named read-outs stand apart in the source and are kept apart here.

Chain of cytochrome P450 2C8-isoenzyme (P10632 whole entry): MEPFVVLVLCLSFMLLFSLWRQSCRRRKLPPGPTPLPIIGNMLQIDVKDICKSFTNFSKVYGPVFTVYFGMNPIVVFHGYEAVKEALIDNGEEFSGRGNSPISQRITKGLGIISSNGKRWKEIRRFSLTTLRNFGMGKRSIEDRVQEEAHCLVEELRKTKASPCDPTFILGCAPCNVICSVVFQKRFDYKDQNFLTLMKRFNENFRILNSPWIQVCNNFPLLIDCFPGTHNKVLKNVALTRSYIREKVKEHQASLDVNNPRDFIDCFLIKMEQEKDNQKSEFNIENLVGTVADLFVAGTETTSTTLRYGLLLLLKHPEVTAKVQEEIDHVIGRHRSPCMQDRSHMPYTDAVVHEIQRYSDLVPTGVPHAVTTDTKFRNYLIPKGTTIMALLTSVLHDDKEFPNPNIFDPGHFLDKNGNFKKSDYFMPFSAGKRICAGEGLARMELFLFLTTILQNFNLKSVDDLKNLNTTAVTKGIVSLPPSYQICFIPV
Chain of cytochrome P450 2C9-isoenzyme (P11712 whole entry): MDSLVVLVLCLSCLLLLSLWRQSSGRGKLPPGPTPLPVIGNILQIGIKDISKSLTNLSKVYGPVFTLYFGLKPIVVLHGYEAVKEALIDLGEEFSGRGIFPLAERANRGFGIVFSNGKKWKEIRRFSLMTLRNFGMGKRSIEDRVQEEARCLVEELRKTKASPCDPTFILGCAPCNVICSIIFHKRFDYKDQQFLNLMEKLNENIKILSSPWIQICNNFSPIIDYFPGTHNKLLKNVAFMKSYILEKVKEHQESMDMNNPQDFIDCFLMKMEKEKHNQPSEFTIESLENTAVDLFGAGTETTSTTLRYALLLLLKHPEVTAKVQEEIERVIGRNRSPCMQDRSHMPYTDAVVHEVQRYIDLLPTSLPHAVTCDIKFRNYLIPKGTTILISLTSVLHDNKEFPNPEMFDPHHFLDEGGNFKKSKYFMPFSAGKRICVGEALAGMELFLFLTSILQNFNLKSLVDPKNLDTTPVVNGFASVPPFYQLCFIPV
Chain of human GPR40 receptor (O14842 whole entry): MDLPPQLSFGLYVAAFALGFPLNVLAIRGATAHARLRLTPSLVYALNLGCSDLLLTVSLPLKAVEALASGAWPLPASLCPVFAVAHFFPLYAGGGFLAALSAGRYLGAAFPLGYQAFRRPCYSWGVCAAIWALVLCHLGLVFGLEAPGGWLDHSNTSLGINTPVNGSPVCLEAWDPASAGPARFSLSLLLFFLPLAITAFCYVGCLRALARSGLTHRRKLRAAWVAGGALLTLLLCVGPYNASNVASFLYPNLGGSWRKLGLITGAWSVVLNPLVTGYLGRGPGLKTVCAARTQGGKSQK

In the case of `Cc1cc(O[C@@H]2COC[C@H]2O)cc(C)c1-c1ccc(F)c2c1CC[C@H]2Nc1ccc([C@H]2C[C@@H]2C(=O)O)nc1` [Example 5, (1S,2S)-2-(5-{(R)-7-Fluoro-4-[4-((3R,4R)-4-hydroxy-tetrahydro-furan-3-yloxy)-2,6-dimethyl-phenyl]-indan-1-ylamino}-pyridin-2-yl)-cyclopropanecarboxylic acid], the IC50 in series [1] and in series [3] was more than 50 µM throughout. For the same compound, the EC50 on human GPR40 receptor (1321N1 cells stably expressing human GPR40, 1 h stimulation, read-out: EC50) was determined as 0.035 µM. Also, the “Amount of degradation after 2 h” value in series [2] is less than 0.5%. The same compound had a solubility at 24 h in the series “Aqueous solubility” of 121 µg/mL (≈ 233 µM).

Turning to `Cc1cc(-c2nnn(C)n2)cc(C)c1-c1ccc(F)c2c1CC[C@H]2Oc1ccc([C@H]2C[C@@H]2C(=O)O)cc1` [Example 15 in WO 2013/178575], the “Amount of degradation after 2 h” value in series [2] worked out at 3%.

In turn, `Cc1cc(OCCC(C)(C)O)cc(C)c1-c1ccc(F)c2c1CC[C@H]2Oc1ccc([C@H]2C[C@@H]2C(=O)O)cc1` [Example 17 in WO 2013/178575, reference compound] displayed an IC50 in series [1] of 6 µM. Besides, the EC50 at human GPR40 receptor (head-to-head compilation, given as IC50, values equal the EC50 of Table 2, read-out: GPR40: IC50) was 0.004 µM. In series [2], the “Amount of degradation after 2 h” value is 8%. For the same compound, half-maximal inhibition in series [3] (IC50) required 14 µM. Moreover, in “Aqueous solubility”, the solubility at 24 h was less than 1 µg/mL and the “Solubility at pH value 2.2” value is less than 1 μg/mL.

Regarding `Cc1cc(-c2nnn(C)n2)cc(C)c1-c1ccc(F)c2c1CC[C@H]2Oc1ccc([C@H]2C[C@@H]2C(=O)O)cc1` [Example 33 in WO 2013/178575], the “Amount of degradation after 2 h” value in series [2] is given as 8%.

In the case of `Cc1cc(-c2nnn(C)n2)cc(C)c1-c1ccc(F)c2c1CC[C@H]2Oc1ccc([C@H]2C[C@@H]2C(=O)O)cc1` [Example 54 in WO 2013/178575], the “Amount of degradation after 2 h” value in series [2] worked out at 2.5%^.

The IC50 is the concentration needed to halve the response being measured. Read a low IC50 as inhibition by little substance. For orientation: solubility means the concentration that dissolves in the medium under given conditions. Higher therefore signals much dissolved substance. The term Solubility denotes how much of the substance goes into solution per volume. Read a low Solubility as little dissolved substance.
